Where two headings read alike, the source gives them in different places. Marks after values point to notes of the source that are not given here.

Data on four compounds can be found in PMC3314937, “Identifying improved TSPO PET imaging probes through biomathematics: The impact of multiple TSPO binding sites in vivo” (Neuroimage, 2012).

In data set [1] the target is TSPO. Particulars: ^3H-PK11195, 37 °C, ref Owen et al. (2010, 2011), cited from earlier work.
The test system of data set [2] is TSPO. Also noted: method as in Owen et al. (2010, 2011). Particulars: 37 °C, ref Owen et al. (2010, 2011), cited from earlier work; for Bmax-H: HABs, ^3H-PBR28 values also used for PBR111 and DPA713, ^3H-PK11195 for PK11195; for Bmax-L: LABs; for Bmax-M: MABs, both high and low affinity sites, Bmax_H used for PK11195.
A further data set can be described thus: in vitro. Particulars: Landrace, pig, pH 7.4.
Data set [3] has as its system TSPO. The data set can be described thus: competition assays with ^3H-PK11195 for each binding class. Also noted: species or system human.
A short description of data set [4]: equilibrium dialysis, free fractions in plasma and brain tissue. The following applies: 1 μg/g, dialysis against PBS pH 7.4, 5 h, 37 °C.
Description: (§1) The fP and fND were measured from Landrace pig tissue (blood and brain — obtained from Charles River Laboratories, Tranent, Scotland) using equilibrium dialysis ([Summerfield et al., 2006]). In brief, the cold test compounds were spiked into plasma or brain homogenate at a concentration of 1 μg/g and dialysed against phosphate buffered saline (PBS, pH 7.4) for 5 h at 37 °C. Aliquots (20–50 μL) of plasma, brain and dialysate were taken and extracted using acetonitrile containing internal standard, followed by LC–MS/MS analysis. The free fractions were determined as the concentration ratio of analyte in dialysate to that in plasma or brain.

Description for in vitro: as §1

Regarding `CCN(CC)C(=O)Cc1c(-c2ccc(OCCCF)cc2)nc2ccc(Cl)cn12` [^18F-PBR111], the Ki at TSPO [1] (high affinity site (HABs), read-out: Ki-H) is 15.6 ± 3.7 nM; on TSPO [1] (low affinity site (LABs), read-out: Ki-L) it was 61.8 ± 10.7 nM.
`CC[C@@H](C)N(C)C(=O)c1cc2ccccc2c(-c2ccccc2Cl)n1` [^11C-(R)-PK11195]: in the data set with TSPO [2], the Bmax-H is given as 433 ± 154 (n = 9) nM, the Bmax-L is given as 506 ± 131 (n = 5) nM and the Bmax-M is recorded as 433 ± 154 ^b (n = 9) nM. Also, in the data set “in vitro” (brain homogenate), the fraction unbound at 5 h, 1 μg/g worked out at 0.01 ± 0.002. For the same compound, the fraction unbound at 5 h, 1 μg/g in “in vitro” (plasma) came to 0.14 ± 0.039.
As for `CCN(CC)C(=O)Cc1c(-c2ccc(O[11CH3])cc2)nn2c(C)cc(C)nc12` [^11C-DPA713], in the data set on TSPO [2], the Bmax-H is given as 193 ± 66 (n = 6) nM, the Bmax-L was 99.4 ± 35 (n = 5) nM and the Bmax-M was 186 ± 37 (n = 4) nM.
In the case of `CCN(CC)C(=O)Cc1c(-c2ccc(OCCC[18F])cc2)nc2ccc(Cl)cn12` [^18F-PBR111], the “affinity ratio (high:low binding site)” value in the data set with TSPO [3] is recorded as ~ 4. Further, in the data set on TSPO [2], the Bmax-H was 193 ± 66 (n = 6) nM, the Bmax-L is given as 99.4 ± 35 (n = 5) nM and the Bmax-M is on record as 186 ± 37 (n = 4) nM. Also, the “fND (free fraction in tissue)” value in data set [4] (pig brain homogenate) is 0.06 ± 0.005 (n = 6). Also, the “fp (free fraction in plasma)” value in data set [4] (pig plasma) was 0.19 ± 0.018 (n = 6).
